Test results: patent US6838456B2, “Condensed pyridoindole derivatives” (Lilly ICOS LLC, priority 2000, dated 2005)

molecular target: human recombinant PDE5 (Homo sapiens, UniProt O76074); assay: Inhibitory effect on cGMP-PDE (one-step assay, 8-[H3]-cGMP); type: biochemical; conditions: in vitro
Experimental: The compounds of structural formula (I) were tested for an ability to inhibit PDE5. The ability of a compound to inhibit PDE5 activity is related to the IC50 value for the compound, i.e., the concentration of inhibitor required for 50% inhibition of enzyme activity. The IC50 value for compounds of structural formula (I) were determined using recombinant human PDE5.
cGMP-PDE activity of compounds of the present invention was measured using a one-step assay adapted from Wells et al., Biochim. Biophys. Acta, 384, 430 (1975). The reaction medium contained 50 mM Tris-HCl, pH 7.5, 5 mM magnesium acetate, 250 μg/ml 5′-Nucleotidase, 1 mM EGTA, and 0.15 μM 8-[H^3]-cGMP. Unless otherwise indicated, the enzyme used was a human recombinant PDE5 (ICOS Corp., Bothell, Wash.).
Compounds of the invention were dissolved in DMSO finally present at 2% in the assay.

| SMILES | IC50 [nM] |
| --- | --- |
| CCOC(=O)c1c(C(=O)OCC)c2n(c1C)[C@H](c1ccc3c(c1)OCO3)c1[nH]c3ccccc3c1C2 [Example 1, (R)-5-Benzo[1,3]dioxol-5-yl-3-methyl-6,11-dihydro-5H-indolizino[6,7-b]indole-1,2-dicarboxylic acid diethyl ester] | 5.6 |
| O=C(O)C1CCN(C(=O)c2ccn3c2Cc2c([nH]c4ccccc24)C3c2ccc3c(c2)OCO3)CC1 (stereo not drawn) [Example 22] | 3 |
| c1ccc2c3c([nH]c2c1)C(c1ccc2c(c1)OCO2)n1cccc1C3 (stereo not drawn) [Example 10] | 140 |
| CN1CCC(N(C)C(=O)c2ccn3c2Cc2c([nH]c4ccccc24)C3c2ccc3c(c2)OCO3)CC1 (stereo not drawn) [Example 16] | 330 |
| N#Cc1ccn2c1Cc1c([nH]c3ccccc13)C2c1ccc2c(c1)OCO2 (stereo not drawn) [Example 27] | 3.6 |
| CCOC(=O)c1c(C(=O)OCC)c2n(c1CC)C(c1ccc3c(c1)OCO3)c1[nH]c3ccccc3c1C2 (stereo not drawn) [Example 12] | 10 |
| CCOC(=O)c1cc(CN)n2c1Cc1c([nH]c3ccccc13)C2c1ccc2c(c1)CCO2 (stereo not drawn) [Example 8] | 40 |
| CN(C(=O)O)C(=O)c1ccn2c1Cc1c([nH]c3ccccc13)C2c1ccc2c(c1)OCO2 (stereo not drawn) [Example 29] | 3.8 |
| CCOC(=O)c1cc(CO)n2c1Cc1c([nH]c3ccccc13)C2c1ccc2c(c1)OCO2 (stereo not drawn) [Example 18] | 10 |
| CCOC(=O)c1c(C(=O)OCC)c(C(C)C)n2c1Cc1c([nH]c3ccccc13)C2c1ccc2c(c1)OCO2 (stereo not drawn) [Example 15] | 190 |
| CCOC(=O)c1cc(C=O)n2c1Cc1c([nH]c3ccccc13)C2c1ccc2c(c1)OCO2 (stereo not drawn) [Example 23] | 3.9 |
| CCOC(=O)c1c(C(=O)O)c(CC)n2c1Cc1c([nH]c3ccccc13)C2c1ccc2c(c1)OCO2 (stereo not drawn) [Example 13] | 5.9 |
| CCOC(=O)c1cc(CNCc2ccccc2)n2c1Cc1c([nH]c3ccccc13)C2c1ccc2c(c1)OCO2 (stereo not drawn) [Example 6] | 10 |
| CCOC(=O)c1cn2c(c1C(=O)OCC)Cc1c([nH]c3ccccc13)C2c1ccc2c(c1)OCO2 (stereo not drawn) [Example 21] | 1.2 |
| CCOC(=O)c1cc(C(C)C)n2c1Cc1c([nH]c3ccccc13)C2c1ccc2c(c1)OCO2 (stereo not drawn) [Example 19] | 460 |

Now from value to compound:

| IC50 [nM] | SMILES |
| --- | --- |
| 20 | O=C(NCCN1CCOCC1)c1ccn2c1Cc1c([nH]c3ccccc13)C2c1ccc2c(c1)OCO2 (stereo not drawn) [Example 31] |
| 10 | O=C(O)c1ccn2c1Cc1c([nH]c3ccccc13)C2c1ccc2c(c1)OCO2 (stereo not drawn) [Example 36] |
| 8 | O=C(NCCn1cccn1)c1ccn2c1Cc1c([nH]c3ccccc13)C2c1ccc2c(c1)OCO2 (stereo not drawn) [Example 17] |
| 50 | CCc1cc(C(=O)NCc2ccccn2)c2n1C(c1ccc3c(c1)OCO3)c1[nH]c3ccccc3c1C2 (stereo not drawn) [Example 53] |
| 5.8 | O=C(NCC1CCCO1)c1ccn2c1Cc1c([nH]c3ccccc13)C2c1ccc2c(c1)OCO2 (stereo not drawn) [Example 14] |
| 5.5 | CCOC(=O)c1ccn2c1Cc1c([nH]c3ccccc13)C2c1ccc2c(c1)OCO2 (stereo not drawn) [Example 35] |
| 3.7 | O=C(NCc1ccccn1)c1ccn2c1Cc1c([nH]c3ccccc13)C2c1ccc2c(c1)OCO2 (stereo not drawn) [Example 28] |
| 5.9 | O=C(NCc1cccnc1)c1ccn2c1Cc1c([nH]c3ccccc13)C2c1ccc2c(c1)OCO2 (stereo not drawn) [Example 25] |
| 10 | NCCNC(=O)c1ccn2c1Cc1c([nH]c3ccccc13)C2c1ccc2c(c1)OCO2 (stereo not drawn) [Example 30] |
| 1.5 | O=C(NCc1cccc[n+]1[O-])c1ccn2c1Cc1c([nH]c3ccccc13)C2c1ccc2c(c1)OCO2 (stereo not drawn) [Example 20] |
| 110 | CN(C)CCNC(=O)c1ccn2c1Cc1c([nH]c3ccccc13)C2c1ccc2c(c1)OCO2 (stereo not drawn) [Example 26] |
| 2.1 | O=C(NCCc1ccccn1)c1ccn2c1Cc1c([nH]c3ccccc13)C2c1ccc2c(c1)OCO2 (stereo not drawn) [Example 24] |
